Laboratory results: PubChem BioAssay (NCI)
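In this assay, cells in 96-well plates receive the compound at five concentrations for 48 hours. Endpoints are linearly interpolated between the surrounding concentrations. The concentration for 50% growth inhibition is given as GI50. At the TGI there is no net growth.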

Assays:
Test in all cases: NCI-60 cell line screen, 48 h
A549 NSCLC = test system: A549 NSCLC
K-562 leukemia = test system: K-562 leukemia
MOLT-4 leukemia = test system: MOLT-4 leukemia
OVCAR-4 ovarian = test system: OVCAR-4 ovarian
SK-MEL-28 melanoma = test system: SK-MEL-28 melanoma
SNB-75 CNS = test system: SNB-75 CNS
UACC-257 melanoma = test system: UACC-257 melanoma
HCT-15 colon = test system: HCT-15 colon
DU-145 prostate = test system: DU-145 prostate
HS 578T breast = test system: HS 578T breast

Row | SMILES | TGI (A549 NSCLC) | TGI (K-562 leukemia) | TGI (MOLT-4 leukemia) | TGI (OVCAR-4 ovarian) | TGI (SK-MEL-28 melanoma) | TGI (SNB-75 CNS) | TGI (UACC-257 melanoma) | TGI (HCT-15 colon) | GI50 (A549 NSCLC) | GI50 (DU-145 prostate) | TGI (DU-145 prostate) | GI50 (HCT-15 colon) | GI50 (HS 578T breast) | TGI (HS 578T breast) | GI50 (K-562 leukemia) | GI50 (MOLT-4 leukemia) | GI50 (OVCAR-4 ovarian) | GI50 (SK-MEL-28 melanoma) | GI50 (SNB-75 CNS) | GI50 (UACC-257 melanoma)
1 | COc1ccc(C(=O)O)c(Cc2ccc3ccccc3c2)c1 | > 100 µM | > 100 µM | > 100 µM | > 100 µM | > 100 µM | > 100 µM | > 100 µM | – | – | – | – | – | – | – | – | – | – | – | – | –
2 | Cc1cc2c(c(N)c1C)C(=O)c1ccccc1C2=O | > 100 µM | > 100 µM | > 100 µM | 41.4 µM | – | 39.8 µM | > 100 µM | > 100 µM | – | – | – | – | – | – | – | – | – | – | – | –
3 | CC1CCC23COC(=O)C2C(O)CCC3C1(C)CC(O)c1ccoc1 (centres undefined) | > 100 µM | > 100 µM | > 100 µM | > 100 µM | > 100 µM | > 100 µM | > 100 µM | > 100 µM | – | – | – | – | – | – | – | – | – | – | – | –
4 | COC(=O)NN1C(C)=C(C(=O)OC)C2(CCOC2=O)C1(C)O (centres undefined) | > 100 µM | > 100 µM | > 100 µM | > 100 µM | > 100 µM | – | > 100 µM | > 100 µM | – | – | – | – | – | – | – | – | – | – | – | –
5 | COc1ccc(-c2nocc2-c2cc(OC)c(OC)c(OC)c2)cc1 | > 100 µM | > 100 µM | > 100 µM | > 100 µM | > 89.9 µM | > 100 µM | – | > 100 µM | 0.0907 µM | 0.286 µM | > 100 µM | 0.0447 µM | 0.216 µM | > 100 µM | 0.0426 µM | 0.3 µM | 2.21 µM | 6.9 µM | 0.0751 µM | –
6 | COc1ccc(Cn2c(Br)c3c(c2-c2cc(OC)c(OC)c(OC)c2)CCc2sc(NC(C)=O)nc2-3)cc1 | > 100 µM | > 100 µM | > 100 µM | > 100 µM | > 100 µM | > 100 µM | > 100 µM | 32.2 µM | 3.92 µM | 4.44 µM | > 100 µM | 3.12 µM | – | – | 3.67 µM | 4.37 µM | 3.49 µM | 5.09 µM | 1.82 µM | 98.5 µM
7 | O=S(=O)(NCCCNc1cc(-c2cn(-c3ccccc3)nc2-c2cccc(O)c2)ccn1)c1ccc(Cl)cc1 | 10.1 µM | 2.5 µM | 3.69 µM | 5.92 µM | – | 7.99 µM | – | 3.45 µM | 2.64 µM | 2.33 µM | 7.58 µM | 1.34 µM | 1.16 µM | 4.77 µM | 0.437 µM | 1.26 µM | 1.67 µM | – | 1.45 µM | –
8 | CCN(CC)CCOc1ccc(C(=C2CCCCC2)c2ccc(OCCN(CC)CC)cc2)cc1 | 3.16 µM | 1.02 µM | 2.59 µM | 4.77 µM | 2.64 µM | 2.94 µM | 3.32 µM | 2.91 µM | – | – | – | – | – | – | – | – | – | – | – | –
9 | BrC12c3ccccc3Sc3ccccc3C1(Br)c1ccccc12 (centres undefined) | > 100 µM | > 100 µM | 35.8 µM | > 100 µM | – | 95.8 µM | 86.3 µM | 46.3 µM | – | – | – | – | – | – | – | – | – | – | – | –
10 | N#CC1=C(c2ccccc2)C(O)(c2ccccc2)NC1=O (centres undefined) | > 100 µM | > 100 µM | > 100 µM | > 100 µM | > 100 µM | > 100 µM | > 100 µM | > 100 µM | – | – | – | – | – | – | – | – | – | – | – | –
11 | CCOC(=O)/C=C/c1ccccn1 | > 100 µM | > 100 µM | > 100 µM | > 100 µM | > 100 µM | > 100 µM | > 100 µM | > 100 µM | – | – | – | – | – | – | – | – | – | – | – | –
12 | CN(C)/C=N/c1nc2ncn(CCOC(=O)c3ccccc3)c2c(=O)[nH]1 | > 100 µM | > 100 µM | – | > 100 µM | > 100 µM | > 100 µM | > 100 µM | > 100 µM | – | – | – | – | – | – | – | – | – | – | – | –
13 | O=C1C(N2C(=O)c3ccccc3C2=O)CN1C(COCc1ccccc1)c1ccc(OCc2ccccc2)cc1 (centres undefined) | > 100 µM | > 100 µM | > 100 µM | > 100 µM | > 100 µM | > 100 µM | > 100 µM | > 100 µM | – | – | – | – | – | – | – | – | – | – | – | –
14 | COc1ccc(/C(C)=N/NC(N)=S)c(OC)c1 | > 100 µM | > 100 µM | > 100 µM | – | > 100 µM | > 100 µM | > 100 µM | > 100 µM | – | – | – | – | – | – | – | – | – | – | – | –
15 | Oc1cc2c(cc1O)-c1[nH]ncc1CC2 | > 100 µM | > 100 µM | 88.8 µM | – | > 100 µM | 70.5 µM | > 100 µM | > 100 µM | – | – | – | – | – | – | – | – | – | – | – | –
16 | O=C([O-])c1ccccc1Nc1ccccc1[O-].[Ni+3].[OH3+].[OH3+].[OH3+] | > 100 µM | > 100 µM | > 100 µM | > 100 µM | > 100 µM | – | > 100 µM | > 100 µM | > 100 µM | – | – | > 100 µM | – | – | > 100 µM | > 100 µM | > 100 µM | > 100 µM | – | > 100 µM
17 | COC(=O)C(Cc1nc2ccccc2[nH]c1=O)C(=O)C(=O)Nc1ccc(OC)cc1[N+](=O)[O-] (centres undefined) | > 100 µM | > 100 µM | > 100 µM | > 100 µM | > 100 µM | – | > 100 µM | > 100 µM | – | – | – | – | – | – | – | – | – | – | – | –
18 | O=C(O)C1OC(Oc2cc(O)c3c(=O)cc(-c4ccc(O)cc4)oc3c2)C(O)C(O)C1O (centres undefined) | > 100 µM | – | – | > 100 µM | > 100 µM | > 100 µM | > 100 µM | – | – | – | – | – | – | – | – | – | – | – | – | –
19 | CC(O[Si](C)(C)C)C1C=CC(C)n2c(=O)n(-c3ccccc3)c(=O)n21 (centres undefined) | > 100 µM | > 100 µM | > 100 µM | > 100 µM | > 100 µM | – | – | > 100 µM | – | – | – | – | – | – | – | – | – | – | – | –
20 | CC(C)CC(=O)NS(=O)(=O)c1ccccc1 | > 100 µM | > 100 µM | > 100 µM | > 100 µM | > 100 µM | > 100 µM | > 100 µM | > 100 µM | – | – | – | – | – | – | – | – | – | – | – | –
21 | Nc1c(C(=O)Nc2ccccc2)sc2nc3c(cc12)CCCC3 | 39.4 µM | > 100 µM | > 100 µM | > 100 µM | > 100 µM | 40.8 µM | – | > 100 µM | 0.546 µM | 1.67 µM | > 58.9 µM | 0.436 µM | 2.73 µM | > 100 µM | 0.436 µM | 0.693 µM | 5.18 µM | 14.7 µM | 0.551 µM | –
